# Experiments:
# NCI-H295R = test: ExcessHSA synergy score with TAK-243; higher = less synergy (negative = synergistic); settings: combined with: TAK-243 (MLN-7243) matrix, 9-point 1:2 dilution
# Description: (§1)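 Each drug was tested at 9 points with 1:2 dilution; viability was read by CellTiter-Glo as in the single-agent screen. Synergy is scored as ExcessHSA (sum of excess over highest single agent; negative = synergy) and the Beta interaction parameter (<1 synergy).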
# CU-ACC1 = test: as above; settings: combined with: TAK-243 (MLN-7243) matrix, 9-point 1:2 dilution
# Description: as §1
smiles,measurement,setting,value
CC(C)c1cc(-c2n[nH]c(=O)n2-c2ccc3c(ccn3C)c2)c(O)cc1O [Ganetespib (STA-9090)],ExcessHSA synergy score with TAK-243,NCI-H295R,-59.8
same,ExcessHSA synergy score with TAK-243,CU-ACC1,400
C=CCNC1=C2C[C@@H](C)C[C@H](OC)[C@H](O)[C@@H](C)/C=C(\C)[C@H](OC(N)=O)[C@@H](OC)/C=C\C=C(/C)C(=O)NC(=CC1=O)C2=O [17-AAG],ExcessHSA synergy score with TAK-243,NCI-H295R,-251
same,ExcessHSA synergy score with TAK-243,CU-ACC1,421
O=C(CCCCCCNC(=O)c1cnc(N(c2ccccc2)c2ccccc2Cl)nc1)NO [Citarinostat (ACY-241)],ExcessHSA synergy score with TAK-243,NCI-H295R,-290
same,ExcessHSA synergy score with TAK-243,CU-ACC1,-47.7
Cc1cc(Oc2ccc3nc(COc4ccc(CC5SC(=O)NC5=O)cc4)n(C)c3c2)cc(C)c1N (configuration not stated) [Efatutazone],ExcessHSA synergy score with TAK-243,NCI-H295R,-69.9
same,ExcessHSA synergy score with TAK-243,CU-ACC1,-278
CC(C)[C@@H](CS(=O)(=O)C(C)C)N1C(=O)[C@@](C)(CC(=O)O)C[C@H](c2cccc(Cl)c2)[C@H]1c1ccc(Cl)cc1 [AMG 232],ExcessHSA synergy score with TAK-243,NCI-H295R,236
same,ExcessHSA synergy score with TAK-243,CU-ACC1,-130
O=C(NCc1cc(F)cc(F)c1)[C@@]1(O)CCN(c2ccc3[nH]ccc3c2)C1=O [M8891],ExcessHSA synergy score with TAK-243,NCI-H295R,171
same,ExcessHSA synergy score with TAK-243,CU-ACC1,34
CC(C)n1c(=O)n(C)c2cnc3cc(F)c(-c4ccc(OCCCN5CCCCC5)nc4)cc3c21 [AZD-1390],ExcessHSA synergy score with TAK-243,NCI-H295R,286
same,ExcessHSA synergy score with TAK-243,CU-ACC1,697
CO[C@H]1/C=C/C[C@H](C)[C@@H](C)S(=O)(=O)NC(=O)c2ccc3c(c2)N(C[C@@H]2CC[C@H]21)C[C@@]1(CCCc2cc(Cl)ccc21)CO3 [AMG-176],ExcessHSA synergy score with TAK-243,NCI-H295R,-202
same,ExcessHSA synergy score with TAK-243,CU-ACC1,-10.7
COc1ccc(C(=O)N2CCN(c3ccc4c(c3)CCC(=O)N4)CC2)cc1OC [Vesnarinone],ExcessHSA synergy score with TAK-243,NCI-H295R,706
same,ExcessHSA synergy score with TAK-243,CU-ACC1,628
CS(=O)(=O)c1ccc(C(=O)Nc2ccc(Cl)c(-c3ccccn3)c2)c(Cl)c1 [Vismodegib],ExcessHSA synergy score with TAK-243,NCI-H295R,-5.69
same,ExcessHSA synergy score with TAK-243,CU-ACC1,-206
CCOC(=O)c1ccc(C#Cc2ccc3c(c2)C(C)(C)CCS3)nc1 [Tazarotene],ExcessHSA synergy score with TAK-243,NCI-H295R,136
same,ExcessHSA synergy score with TAK-243,CU-ACC1,230
N[C@H]1CC[C@H](N[C@@H]2C[C@H]2c2ccccc2)CC1 [ORY-1001],ExcessHSA synergy score with TAK-243,NCI-H295R,-493
same,ExcessHSA synergy score with TAK-243,CU-ACC1,-384
CNC(=O)Nc1ccc2c(c1)CC[C@@]21OC(=O)N(CC(=O)N(Cc2ccc(F)cc2)[C@@H](C)C(F)(F)F)C1=O [A-485],ExcessHSA synergy score with TAK-243,NCI-H295R,334
same,ExcessHSA synergy score with TAK-243,CU-ACC1,305
CC[C@@H]1C(=O)N(C)c2cnc(Nc3ccc(C(=O)N[C@H]4CC[C@H](N5CCN(CC6CC6)CC5)CC4)cc3OC)nc2N1C(C)C [Volasertib],ExcessHSA synergy score with TAK-243,NCI-H295R,-938
same,ExcessHSA synergy score with TAK-243,CU-ACC1,-422
CN(C)C/C=C/C(=O)Nc1ccc(C(=O)Nc2cccc(Nc3ncc(Cl)c(-c4c[nH]c5ccccc45)n3)c2)cc1 [THZ1],ExcessHSA synergy score with TAK-243,NCI-H295R,-128
same,ExcessHSA synergy score with TAK-243,CU-ACC1,-55.8
Nc1nc(OCc2ccccc2)c2nc[nH]c2n1 [O6-Benzylguanine],ExcessHSA synergy score with TAK-243,NCI-H295R,45.7
same,ExcessHSA synergy score with TAK-243,CU-ACC1,-248
Nc1c(C(=O)c2ccccc2)sc2[nH]c(=O)c(C(=O)O)cc12,ExcessHSA synergy score with TAK-243,NCI-H295R,-51.1
same,ExcessHSA synergy score with TAK-243,CU-ACC1,-23.4
Nc1ncnc2c1ncn2C(C=O)OC(C=O)CO (configuration not stated) [Adenosine Dialdehyde],ExcessHSA synergy score with TAK-243,NCI-H295R,712
same,ExcessHSA synergy score with TAK-243,CU-ACC1,349
Nc1ccn([C@@H]2O[C@H](CO)[C@@H](O)[C@@H]2O)c(=O)n1 [Cytarabine],ExcessHSA synergy score with TAK-243,NCI-H295R,789
same,ExcessHSA synergy score with TAK-243,CU-ACC1,457
CCc1cc(C(N)=O)ccc1-n1nc(C(C)C)c2c(-n3cnc(-c4cnn(C)c4)c3)ccnc21 [Pimitespib],ExcessHSA synergy score with TAK-243,NCI-H295R,586
same,ExcessHSA synergy score with TAK-243,CU-ACC1,959
COc1c(OCCCN2CCOCC2)ccc2c3n(c(=NC(=O)c4cnc(N)nc4)nc12)CCN3 [Copanlisib],ExcessHSA synergy score with TAK-243,NCI-H295R,87
same,ExcessHSA synergy score with TAK-243,CU-ACC1,70.4
Nc1cccc2c1CN(C1CCC(=O)NC1=O)C2=O (configuration not stated) [Lenalidomide],ExcessHSA synergy score with TAK-243,NCI-H295R,364
same,ExcessHSA synergy score with TAK-243,CU-ACC1,337
C[C@H]1N=C(N(C)C)N=C(N)N1 [Imeglimin],ExcessHSA synergy score with TAK-243,NCI-H295R,50.3
same,ExcessHSA synergy score with TAK-243,CU-ACC1,-159
O=C1NC(=O)C(c2cnc3ccccn23)=C1c1cn2c3c(cc(F)cc13)CN(C(=O)N1CCCCC1)CC2,ExcessHSA synergy score with TAK-243,NCI-H295R,305
same,ExcessHSA synergy score with TAK-243,CU-ACC1,432
CC1=C(/C=C/C(C)=C/C=C/C(C)=C\C(=O)O)C(C)(C)CCC1 [Isotretinoin],ExcessHSA synergy score with TAK-243,NCI-H295R,636
same,ExcessHSA synergy score with TAK-243,CU-ACC1,563
CO[C@H]1C(=O)[C@]2(C)[C@@H](OC)C[C@H]3OC[C@@]3(OC(C)=O)[C@H]2[C@H](OC(=O)c2ccccc2)[C@]2(O)C[C@H](OC(=O)[C@H](O)[C@@H](NC(=O)OC(C)(C)C)c3ccccc3)C(C)=C1C2(C)C [Cabazitaxel],ExcessHSA synergy score with TAK-243,NCI-H295R,-364
same,ExcessHSA synergy score with TAK-243,CU-ACC1,396
